Measurements taken from patent US8686044B2, “Amide derivative, pest control agent containing the amide derivative, and use of the amide derivative” (Mitsui Chemicals Agro, Inc., priority 2008, dated 2014).

Legend:
Type in all cases: in vivo
Spodoptera litura = test: Pesticidal test against Spodoptera litura (cabbage leaf dip); details: foliar, 144 h, 2-stage larvae, examined after 6 days, 25° C., read-out: pesticidal rate; for pest or weed control at 1 ppm: concentration 1 ppm
Experimental: (§1) Pesticidal Test against Spodoptera litura A piece of a cabbage leaf was immersed for 30 seconds in a chemical solution in which a test compound had been prepared at a predetermined concentration, and air-dried, and then put into a 7 cm polyethylene cup having a filter paper laid on the bottom thereof, and 2-stage larvae of Spodoptera litura were released. They were left to stand in a thermostatic chamber at 25° C., and the numbers of the living pests and the dead pests were examined after 6 days. The test was carried out with five larvae per group in two replicates. Further, the following compound (A) disclosed in the pamphlet of International Publication WO 2005/073165 was used as a comparative compound.

Plutella xylostella = test: Pesticidal test against Plutella xylostella (cabbage leaf dip); details: foliar, 144 h, 2-stage larvae, examined after 6 days, 25° C., read-out: pesticidal rate; for pest or weed control at 1 ppm: concentration 1 ppm; for pest or weed control at 10 ppm: concentration 10 ppm
Experimental: as §1, with “Plutella xylostella” for “Spodoptera litura”, “above” for “following”, “(A)” for “(A) disclosed in the pamphlet of International Publication WO 2005/073165”

Laodelphax striatellus = test: Pesticidal test against Laodelphax striatellus (rice seedling spray); details: 144 h, concentration 100 ppm, 3-stage larvae, examined after 6 days, 25° C., read-out: pesticidal rate
Experimental: Pesticidal Test against Laodelphax striatellus
2.5 ml of an acetone solution in which a test compound had been prepared at a predetermined concentration was sprayed on rice seedlings, air-dried, and then put into a glass tube having a diameter of 3 cm and a height of 13 cm, having water therein, and 3-stage larvae of Laodelphax striatellus were released and the tube was capped. They were left to stand in a thermostatic chamber at 25° C., and the numbers of the living pests and the dead pests were examined after 6 days. The test was carried out with ten larvae per group in two replicates.

CN(C(=O)c1ccc(Cl)nc1)c1cccc(C(=O)Nc2c(Br)cc(C(F)(C(F)(F)F)C(F)(F)C(F)(F)F)cc2Br)c1F (stereo not drawn) [7-1225]
≥ 70%: pest or weed control at 1 ppm (Spodoptera litura) | pest or weed control at 1 ppm (Plutella xylostella) | pest or weed control at 100 ppm (Laodelphax striatellus)

CN(C(=O)c1cccnc1Cl)c1cccc(C(=O)Nc2c(Br)cc(C(F)(C(F)(F)F)C(F)(F)C(F)(F)F)cc2Br)c1F (stereo not drawn) [7-1218]
≥ 70%: pest or weed control at 1 ppm (Spodoptera litura) | pest or weed control at 1 ppm (Plutella xylostella) | pest or weed control at 100 ppm (Laodelphax striatellus)

CN(C(=O)c1ccc(C#N)cc1)c1cccc(C(=O)Nc2c(I)cc(C(F)(C(F)(F)F)C(F)(F)F)cc2C(F)(F)F)c1 [7-445]
≥ 70%: pest or weed control at 1 ppm (Spodoptera litura) | pest or weed control at 1 ppm (Plutella xylostella) | pest or weed control at 100 ppm (Laodelphax striatellus)

N#Cc1cccc(C(=O)Nc2cccc(C(=O)Nc3c(I)cc(C(F)(C(F)(F)F)C(F)(F)F)cc3C(F)(F)F)c2)c1 [6-444]
≥ 70%: pest or weed control at 1 ppm (Spodoptera litura) | pest or weed control at 1 ppm (Plutella xylostella) | pest or weed control at 100 ppm (Laodelphax striatellus)

CN(C(=O)c1cccnc1Cl)c1cccc(C(=O)Nc2c(I)cc(C(F)(C(F)(F)F)C(F)(F)C(F)(F)F)cc2C(F)(F)F)c1F (stereo not drawn) [7-1844]
≥ 70%: pest or weed control at 1 ppm (Spodoptera litura) | pest or weed control at 1 ppm (Plutella xylostella) | pest or weed control at 100 ppm (Laodelphax striatellus)

O=C(Nc1cccc(C(=O)Nc2c(Br)cc(C(F)(C(F)(F)F)C(F)(F)F)cc2C(F)(F)F)c1)c1cccc(F)c1 [6-270]
≥ 70%: pest or weed control at 1 ppm (Spodoptera litura) | pest or weed control at 1 ppm (Plutella xylostella) | pest or weed control at 100 ppm (Laodelphax striatellus)

CN(C(=O)c1ccc(F)cc1)c1cccc(C(=O)Nc2c(Br)cc(C(F)(C(F)(F)F)C(F)(F)C(F)(F)F)cc2Br)c1F (stereo not drawn) [7-1185]
≥ 70%: pest or weed control at 1 ppm (Spodoptera litura) | pest or weed control at 1 ppm (Plutella xylostella) | pest or weed control at 100 ppm (Laodelphax striatellus)

CN(C(=O)c1cccc(NC(=O)c2ccc(C#N)cc2)c1)c1c(Br)cc(C(F)(C(F)(F)F)C(F)(F)F)cc1C(F)(F)F [8-289, N-(2-bromo-4-(perfluoropropan-2-yl)-6-(trifluoromethyl)phenyl)-3-(4-cyanobenzamide)-N-methylbenzamide]
≥ 70%: pest or weed control at 1 ppm (Spodoptera litura) | pest or weed control at 1 ppm (Plutella xylostella) | pest or weed control at 100 ppm (Laodelphax striatellus)

CN(C(=O)c1ccccc1)c1cccc(C(=O)N(C)c2c(Br)cc(C(F)(C(F)(F)F)C(F)(F)F)cc2C(F)(F)F)c1 [9-270]
≥ 70%: pest or weed control at 1 ppm (Spodoptera litura) | pest or weed control at 1 ppm (Plutella xylostella) | pest or weed control at 100 ppm (Laodelphax striatellus)

CN(C(=O)c1cccc(C#N)c1)c1cccc(C(=O)N(C)c2c(Br)cc(C(F)(C(F)(F)F)C(F)(F)F)cc2C(F)(F)F)c1 [9-290]
≥ 70%: pest or weed control at 1 ppm (Spodoptera litura) | pest or weed control at 1 ppm (Plutella xylostella) | pest or weed control at 100 ppm (Laodelphax striatellus)

CN(C(=O)c1ccc(C#N)cc1)c1cccc(C(=O)Nc2c(Br)cc(C(F)(C(F)(F)F)C(F)(F)C(F)(F)F)cc2Br)c1F (stereo not drawn) [7-1203]
≥ 70%: pest or weed control at 1 ppm (Spodoptera litura) | pest or weed control at 1 ppm (Plutella xylostella) | pest or weed control at 100 ppm (Laodelphax striatellus)

CN(C(=O)c1cccnc1Cl)c1cccc(C(=O)Nc2c(I)cc(C(F)(C(F)(F)F)C(F)(F)C(F)(F)F)cc2I)c1F (stereo not drawn) [7-1374]
≥ 70%: pest or weed control at 1 ppm (Spodoptera litura) | pest or weed control at 1 ppm (Plutella xylostella) | pest or weed control at 100 ppm (Laodelphax striatellus)

O=C(Nc1cccc(C(=O)Nc2c(Br)cc(C(F)(C(F)(F)F)C(F)(F)F)cc2OC(F)(F)F)c1F)c1cccnc1Cl [6-5908, N-(3-(2-bromo-4-(perfluoropropan-2-yl)-6-(trifluoromethoxy)phenylcarbamoyl)-2-fluorophenyl)-2-chloronicotinamide]
≥ 70%: pest or weed control at 1 ppm (Spodoptera litura) | pest or weed control at 1 ppm (Plutella xylostella) | pest or weed control at 100 ppm (Laodelphax striatellus)

CN(C(=O)c1ccccc1F)c1cccc(C(=O)Nc2c(Br)cc(C(F)(C(F)(F)F)C(F)(F)C(F)(F)F)cc2Br)c1F (stereo not drawn) [7-1183]
≥ 70%: pest or weed control at 1 ppm (Spodoptera litura) | pest or weed control at 1 ppm (Plutella xylostella) | pest or weed control at 100 ppm (Laodelphax striatellus)

CN(C(=O)c1cccc(F)c1)c1cccc(C(=O)Nc2c(Br)cc(C(F)(C(F)(F)F)C(F)(F)C(F)(F)F)cc2Br)c1F (stereo not drawn) [7-1184]
≥ 70%: pest or weed control at 1 ppm (Spodoptera litura) | pest or weed control at 1 ppm (Plutella xylostella) | pest or weed control at 100 ppm (Laodelphax striatellus)

CN(C(=O)c1cccc(NC(=O)c2cccnc2Cl)c1)c1c(Br)cc(C(F)(C(F)(F)F)C(F)(F)F)cc1C(F)(F)F [8-304]
≥ 70%: pest or weed control at 1 ppm (Spodoptera litura) | pest or weed control at 1 ppm (Plutella xylostella) | pest or weed control at 100 ppm (Laodelphax striatellus)

O=C(Nc1cccc(C(=O)Nc2c(Br)cc(C(F)(C(F)(F)F)C(F)(F)C(F)(F)F)cc2Br)c1)c1ccc(F)cc1 (stereo not drawn) [6-5906]
≥ 70%: pest or weed control at 1 ppm (Spodoptera litura) | pest or weed control at 1 ppm (Plutella xylostella) | pest or weed control at 100 ppm (Laodelphax striatellus)

N#Cc1ccc(C(=O)Nc2cccc(C(=O)Nc3c(Br)cc(C(F)(C(F)(F)F)C(F)(F)C(F)(F)F)cc3Br)c2F)cc1 (stereo not drawn) [6-1203]
≥ 70%: pest or weed control at 1 ppm (Spodoptera litura) | pest or weed control at 1 ppm (Plutella xylostella) | pest or weed control at 100 ppm (Laodelphax striatellus)

N#Cc1ccc(C(=O)Nc2cc(C(=O)Nc3c(Cl)cc(C(F)(C(F)(F)F)C(F)(F)F)cc3C(F)(F)F)ccc2C#N)cc1 [1-491]
≥ 70%: pest or weed control at 1 ppm (Spodoptera litura) | pest or weed control at 1 ppm (Plutella xylostella) | pest or weed control at 100 ppm (Laodelphax striatellus)

O=C(Nc1c(I)cc(C(F)(C(F)(F)F)C(F)(F)F)cc1C(F)(F)F)c1cccc(NC(=O)c2cccnc2Br)c1 [6-461]
≥ 70%: pest or weed control at 1 ppm (Spodoptera litura) | pest or weed control at 1 ppm (Plutella xylostella) | pest or weed control at 100 ppm (Laodelphax striatellus)

CN(C(=O)c1ccc(C#N)cc1)c1cccc(C(=O)Nc2c(Br)cc(C(F)(C(F)(F)F)C(F)(F)C(F)(F)F)cc2C(F)(F)F)c1F (stereo not drawn) [7-1673]
≥ 70%: pest or weed control at 1 ppm (Spodoptera litura) | pest or weed control at 1 ppm (Plutella xylostella) | pest or weed control at 100 ppm (Laodelphax striatellus)

CN(C(=O)c1cccnc1Cl)c1cccc(C(=O)Nc2c(Br)cc(C(F)(C(F)(F)F)C(F)(F)F)cc2C(F)(F)F)c1 [7-304]
≥ 70%: pest or weed control at 1 ppm (Spodoptera litura) | pest or weed control at 1 ppm (Plutella xylostella) | pest or weed control at 100 ppm (Laodelphax striatellus)

O=C(Nc1cccc(C(=O)Nc2c(Br)cc(C(F)(C(F)(F)F)C(F)(F)F)cc2Br)c1F)c1cccnc1Cl [6-1140, 2-chloro-N-(3-(2,6-dibromo-4-(perfluoropropan-2-yl)phenylcarbamoyl)-2-fluorophenyl)nicotinamide]
≥ 70%: pest or weed control at 1 ppm (Spodoptera litura) | pest or weed control at 1 ppm (Plutella xylostella) | pest or weed control at 100 ppm (Laodelphax striatellus)

CN(C(=O)c1cccnc1Cl)c1cccc(C(=O)Nc2c(Br)cc(C(F)(F)C(F)(F)F)cc2C(F)(F)F)c1 [7-5912]
≥ 70%: pest or weed control at 10 ppm (Spodoptera litura; concentration 10 ppm) | pest or weed control at 10 ppm (Plutella xylostella) | pest or weed control at 100 ppm (Laodelphax striatellus)

CN(C(=O)c1ccc(C#N)cc1)c1cccc(C(=O)Nc2c(C(F)(F)F)cc(C(F)(C(F)(F)F)C(F)(F)F)cc2C(F)(F)F)c1 [7-825]
≥ 70%: pest or weed control at 1 ppm (Spodoptera litura) | pest or weed control at 10 ppm (Plutella xylostella) | pest or weed control at 100 ppm (Laodelphax striatellus)

CN(C(=O)c1ccc([N+](=O)[O-])cc1)c1cccc(C(=O)Nc2c(Br)cc(C(F)(C(F)(F)F)C(F)(F)F)cc2C(F)(F)F)c1 [7-286]
≥ 70%: pest or weed control at 1 ppm (Spodoptera litura) | pest or weed control at 1 ppm (Plutella xylostella) | pest or weed control at 100 ppm (Laodelphax striatellus)

CN(C(=O)c1ccc(C#N)cc1)c1cccc(C(=O)Nc2c(Br)cc(C(F)(C(F)(F)F)C(F)(F)F)cc2C(F)(F)F)c1 [7-289]
≥ 70%: pest or weed control at 1 ppm (Spodoptera litura) | pest or weed control at 1 ppm (Plutella xylostella) | pest or weed control at 100 ppm (Laodelphax striatellus)

O=C(Nc1cccc(C(=O)Nc2c(Br)cc(C(F)(C(F)(F)F)C(F)(F)F)cc2C(F)(F)F)c1)c1ccccc1 [6-268]
≥ 70%: pest or weed control at 1 ppm (Spodoptera litura) | pest or weed control at 1 ppm (Plutella xylostella) | pest or weed control at 100 ppm (Laodelphax striatellus)

CN(C(=O)c1cccnc1Cl)c1cccc(C(=O)Nc2c(Br)cc(C(F)(C(F)(F)F)C(F)(F)F)cc2Br)c1F [7-1140]
≥ 70%: pest or weed control at 1 ppm (Spodoptera litura) | pest or weed control at 1 ppm (Plutella xylostella) | pest or weed control at 100 ppm (Laodelphax striatellus)

O=C(Nc1c(I)cc(C(F)(C(F)(F)F)C(F)(F)F)cc1I)c1cccc(NC(=O)c2c(F)cccc2F)c1F [6-1282]
≥ 70%: pest or weed control at 1 ppm (Spodoptera litura) | pest or weed control at 1 ppm (Plutella xylostella) | pest or weed control at 100 ppm (Laodelphax striatellus)
